According to the supplement of paper PMC6045584:
± gives the standard deviation of the averaged measurements.

What was measured:
[1] = compound: Cc1c(N)nc([C@H](CC(N)=O)NC[C@H](N)C(N)=O)nc1C(=O)N[C@H](C(=O)N[C@H](C)[C@@H](O)[C@H](C)C(=O)N[C@H](C(=O)NCCc1nc(-c2nc(C(=O)NCCC[S+](C)C)cs2)cs1)[C@@H](C)O)[C@@H](OC1OC(CO)C(O)C(O)C1OC1OC(CO)C(O)C(OC(N)=O)C1O)c1cnc[nH]1 [BLEOMYCIN]; assay: surviving fraction relative to DMSO-only wells; higher = less growth inhibition; conditions: exposure time: 5 days
Outline: (§1)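 Log-phase tumour cells were seeded at 250–500 per well in 384-well plates and, from 24 hours after seeding, exposed continuously for five days to inhibitors at 0.5, 1, 5, 10, 50, 100, 500 and 1000 nM. Surviving fraction is CellTiter-Glo luminescence normalised to the median of DMSO-only wells. Luminescence was measured after 10 minutes at room temperature, and only lines screened three times with replicate Pearson r >0.7 and median Z' >0.3 were kept.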

[2] = compound: Cn1ncnc1[C@H]1c2n[nH]c(=O)c3cc(F)cc(c23)N[C@@H]1c1ccc(F)cc1 [BMN-673]; assay: as above; conditions: exposure time: 5 days
Outline: as §1

Row | Test System | surviving fraction ([1]; 0.5 nM) | surviving fraction ([1]; 1 nM) | surviving fraction ([1]; 5 nM) | surviving fraction ([1]; 10 nM) | surviving fraction ([1]; 50 nM) | surviving fraction ([1]; 100 nM) | surviving fraction ([1]; 500 nM) | surviving fraction ([1]; 1000 nM) | surviving fraction ([2]; 0.5 nM) | surviving fraction ([2]; 1 nM) | surviving fraction ([2]; 5 nM) | surviving fraction ([2]; 10 nM) | surviving fraction ([2]; 50 nM) | surviving fraction ([2]; 100 nM) | surviving fraction ([2]; 500 nM) | surviving fraction ([2]; 1000 nM)
1 | SG27 HEADNECK | 1.12 ± 0.06 | 0.997 ± 0.085 | 0.934 ± 0.081 | 1.02 ± 0.011 | 0.949 ± 0.11 | 1.01 ± 0.17 | 1.01 ± 0.11 | 0.864 ± 0.14 | 1.15 ± 0.04 | 1.08 ± 0.11 | 1.06 ± 0.046 | 0.978 ± 0.12 | 1.02 ± 0.17 | 0.927 ± 0.12 | 0.917 ± 0.038 | 0.877 ± 0.16
2 | SG28 HEADNECK | 0.864 ± 0.081 | 0.917 ± 0.11 | 0.892 ± 0.056 | 0.907 ± 0.13 | 0.944 ± 0.074 | 0.899 ± 0.053 | 0.909 ± 0.028 | 0.868 ± 0.1 | 1.09 ± 0.14 | 1.064 ± 0.0085 | 1.12 ± 0.13 | 1.06 ± 0.012 | 1.01 ± 0.12 | 0.996 ± 0.065 | 1.01 ± 0.15 | 1.01 ± 0.074
3 | SG31 HEADNECK | 0.979 ± 0.12 | 0.924 ± 0.018 | 0.767 ± 0.12 | 0.805 ± 0.12 | 0.83 ± 0.046 | 0.733 ± 0.066 | 0.712 ± 0.13 | 0.595 ± 0.065 | 1.18 ± 0.14 | 1.12 ± 0.028 | 1.08 ± 0.24 | 0.911 ± 0.15 | 0.969 ± 0.046 | 0.787 ± 0.09 | 0.916 ± 0.064 | 0.751 ± 0.046
4 | SG32 HEADNECK | 0.921 ± 0.32 | 0.967 ± 0.23 | 0.818 ± 0.069 | 0.825 ± 0.17 | 0.824 ± 0.071 | 0.698 ± 0.048 | 0.593 ± 0.094 | 0.427 ± 0.05 | 1.13 ± 0.067 | 0.975 ± 0.17 | 1.08 ± 0.29 | 0.985 ± 0.094 | 0.872 ± 0.12 | 1.22 ± 0.82 | 0.622 ± 0.0068 | 0.49 ± 0.044
5 | SG43 HEADNECK | 1.13 ± 0.058 | 1.08 ± 0.13 | 1.02 ± 0.096 | 0.81 ± 0.18 | 0.583 ± 0.015 | 0.78 ± 0.087 | 0.613 ± 0.17 | 0.391 ± 0.13 | 1.19 ± 0.23 | 0.909 ± 0.061 | 0.694 ± 0.044 | 0.678 ± 0.046 | 0.74 ± 0.093 | 0.703 ± 0.089 | 0.678 ± 0.091 | 0.785 ± 0.056
6 | SIHA CERVIX | 0.959 ± 0.083 | 0.957 ± 0.017 | 1.02 ± 0.042 | 1.02 ± 0.046 | 1.08 ± 0.071 | 1.08 ± 0.059 | 0.961 ± 0.053 | 0.967 ± 0.024 | 1.01 ± 0.055 | 1.03 ± 0.053 | 1.15 ± 0.062 | 1.05 ± 0.013 | 0.929 ± 0.038 | 0.784 ± 0.13 | 0.602 ± 0.035 | 0.454 ± 0.041
7 | SJSA1 BONE | 0.855 ± 0.056 | 0.861 ± 0.079 | 0.839 ± 0.026 | 0.773 ± 0.011 | 0.654 ± 0.029 | 0.504 ± 0.025 | 0.481 ± 0.029 | 0.44 ± 0.024 | 1.67 ± 0.078 | 1.72 ± 0.018 | 1.72 ± 0.12 | 1.86 ± 0.1 | 0.969 ± 0.054 | 1.27 ± 0.022 | 1.46 ± 0.06 | 1.12 ± 0.031
8 | SKBR3 BREAST | 0.886 ± 0.19 | 0.721 ± 0.1 | 0.81 ± 0.16 | 0.768 ± 0.15 | 0.872 ± 0.15 | 0.889 ± 0.099 | 0.87 ± 0.11 | 0.783 ± 0.13 | 1.154 ± 0.0069 | 1.11 ± 0.12 | 0.863 ± 0.15 | 0.881 ± 0.044 | 0.774 ± 0.075 | 0.575 ± 0.078 | 0.492 ± 0.041 | 0.481 ± 0.014
9 | SNU475 LIVER | 0.8647 ± 0.0059 | 0.859 ± 0.0092 | 0.838 ± 0.014 | 0.844 ± 0.024 | 0.8043 ± 0.0023 | 0.752 ± 0.043 | 0.53 ± 0.025 | 0.384 ± 0.0084 | 1.02 ± 0.034 | 1.01 ± 0.097 | 0.763 ± 0.47 | 0.99 ± 0.032 | 0.882 ± 0.087 | 0.851 ± 0.031 | 0.643 ± 0.025 | 0.508 ± 0.051
10 | SUM44 BREAST | 0.917 ± 0.045 | 0.918 ± 0.013 | 0.92 ± 0.058 | 0.93 ± 0.025 | 1.06 ± 0.037 | 0.973 ± 0.088 | 0.853 ± 0.059 | 0.824 ± 0.023 | 1.16 ± 0.29 | 1.02 ± 0.16 | 0.976 ± 0.12 | 0.798 ± 0.029 | 1.03 ± 0.21 | 0.98 ± 0.15 | 1.09 ± 0.2 | 0.988 ± 0.11
